# Tests used:
# [1] = system: adjuvant arthritis induced in rats; experiment: adjuvant arthritis analgesic bioassay (tail pinch / foot bend squeak response); format: in vivo, Sprague-Dawley rats
# Description: Since analgesic tests using intact animals are not sensitive enough to detect the analgesic activity of nonsteroidal anti-inflammatory compounds, the analgesic bioassay employed utilized inflammatory sensitization procedures, specifically adjuvant arthritis. Adjuvant arthritis induced in rats, the animals used in the bioassay, resembles rheumatoid arthritis in man with respect to the manifestation of inflammation and hyperalgesia. When the affected joints of rats with adjuvant arthritis are subjected to a gentle manipulation, preferably by extending the joint, the rats respond by squeaking, which is a definite and reproducible sign of algesia. The ability of the tested compounds to suppress this squeaking response was an accurate measure of the analgesic activity of the tested compounds.
# In accordance with the adjuvant arthritis bioassay used to evaluate the analgesic activity of the combinations of compounds of the present invention, young adult Sprague-Dawley rats of either sex are rendered hyperalgesic by injection of dessicated Mycobacterium- butyricum suspended in light mineral oil (Freund's adjuvant). The mycobacteria are ground in a mortar, suspended in the oil, and sterilized in an autoclave. Each animal receives 0.5 mg of the bacteria in 0.1 ml of oil, injected subcutaneously through a 21-gauge needle into the distal third of the tail.
# The animals can subsequently be used in two ways for testing the analgesic action of drugs. The day after the injection of adjuvant, the tail is found to be sensitive to touch. Approximately 16 hours after the injection, the experimenter tests the animals for the presence of hyperalgesia. This is done by holding the animal in one hand. With the thumb and forefinger of the other hand, the observer applies gentle pressure to the tail about 2.5 cm proximal to the point where the needle has been inserted. This gentle pressure is repeated at 5-sec intervals. If the rat endures five such gentle presses without emitting more than one "squeak", analgesia is considered to be present and a score of + is assigned. Two or more squeaks earns a rating of 0, or no analgesia. Before being assigned to an experiment, animals are screened and only those with the 0 rating are used.
# The hyperalgesic animals are assigned randomly to drug treatments and one of the treatments is always the vehicle without the drug (placebo group). […] […] This entire procedure may be referred to as "tail pinch" .technique. Alternatively, an apparatus for applying pressure to the tail may be employed and the "squeak threshold" determined before and after drug.
# The adjuvant-injected animals, if left undisturbed, develop severe arthritis which becomes especially manifest in about two weeks. […] This "foot bend" technique yields drug responses essentially identical with those obtained by the "tail pinch" procedure.
# For a further description of this bioassay and its significance, reference is made to Kuzuma and Kawai, "Evaluation of Analgesic Agents in Rats with Adjuvant Arthritis", Chem. Pharm. Bull., 23 (6) 1184-1191 (1975).
# [2] = system: female albino mice (Carworth CF-1); experiment: in vivo; format: in vivo; details: Group I: Diflunisal 400 mg./kg. (100 %LD50) alone; oral; 20 tested; 14 days
# Description: Measurements of the relative safety of the components and of the combination were carried out using acute oral toxicity studies in female mice. Randomly selected female albino mice (Carworth CF-1) weighing from 18 to 24 grams, and 6 to 7 weeks old, were used. The LD50 value for each drug was estimated from acute oral dose-response curves previously established. The following dose regimen was utilized:
# The preparations were administered by gastric intubation using a metal catheter attached to a springe. The various doses were administered randomly with 20 mice per group. Food was withheld one to two hours before and three hours following drug treatment. Water was available at all times. […] Body weights were taken pretest and on days 7 and 14.
smiles,measurement,setting,value
"O=C(O)c1cc(-c2ccc(F)cc2F)ccc1O [Diflunisal, 2-hydroxy-5-(2',4'-difluorophenyl)benzoic acid]",Number of Rats with Analgesia,"[1]; 1/2 h after administration, dose 5 mg./kg., 8 rats per dose",0
same,Number of Rats with Analgesia,"[1]; 1/2 h after administration, dose 10 mg./kg., 8 rats per dose",0
same,Percent of Rats with Analgesia Diflunisal Alone,"[1]; 1 Hrs. after drug, Diflunisal 4 mg./kg., 8 rats per dose",0%
same,Percent of Rats with Analgesia Diflunisal Alone,"[1]; 1 Hrs. after drug, Diflunisal 4 mg./kg., 10 rats per dose",0%
same,Percent of Rats with Analgesia Diflunisal Alone,"[1]; 1 Hrs. after drug, Diflunisal 8 mg./kg., 8 rats per dose",0%
same,Percent of Rats with Analgesia Diflunisal Alone,"[1]; 1 Hrs. after drug, Diflunisal 10 mg./kg., 8 rats per dose",0%
same,Percent of Rats with Analgesia Diflunisal Alone,"[1]; 1 Hrs. after drug, Diflunisal 16 mg./kg., 8 rats per dose",0%
same,Percent of Rats with Analgesia Diflunisal Alone,"[1]; 2 Hrs. after drug, Diflunisal 2 mg./kg., 10 rats per dose",20%
same,Percent of Rats with Analgesia Diflunisal Alone,"[1]; 3 Hrs. after drug, Diflunisal 4 mg./kg., 10 rats per dose",0%
same,Percent of Rats with Analgesia Diflunisal Alone,"[1]; 3 Hrs. after drug, Diflunisal 5 mg./kg., 8 rats per dose",25%
same,Percent of Rats with Analgesia Diflunisal Alone,"[1]; 3 Hrs. after drug, Diflunisal 8 mg./kg., 10 rats per dose",50%
same,Percent of Rats with Analgesia Diflunisal Alone,"[1]; 4 Hrs. after drug, Diflunisal 2 mg./kg., 10 rats per dose",0%
same,Percent of Rats with Analgesia Diflunisal Alone,"[1]; 4 Hrs. after drug, Diflunisal 4 mg./kg., 10 rats per dose",0%
same,Percent of Rats with Analgesia Diflunisal Alone,"[1]; 4 Hrs. after drug, Diflunisal 5 mg./kg., 8 rats per dose",10%
same,Percent of Rats with Analgesia Diflunisal Alone,"[1]; 4 Hrs. after drug, Diflunisal 8 mg./kg., 10 rats per dose",30%
same,Percent of Rats with Analgesia Diflunisal Alone,"[1]; 5 Hrs. after drug, Diflunisal 5 mg./kg., 8 rats per dose",0%
same,Percent of Rats with Analgesia Diflunisal Alone,"[1]; 5 Hrs. after drug, Diflunisal 8 mg./kg., 8 rats per dose",0%
same,Percent of Rats with Analgesia Diflunisal Alone,"[1]; 6 Hrs. after drug, Diflunisal 8 mg./kg., 8 rats per dose",0%
same,Percent of Rats with Analgesia Diflunisal Alone,"[1]; 6 Hrs. after drug, Diflunisal 10 mg./kg., 8 rats per dose",0%
same,Number of Rats with Analgesia,"[1]; 1 h after administration, dose 2 mg./kg., 10 rats per dose",2
same,Number of Rats with Analgesia,"[1]; 1 h after administration, dose 4 mg./kg., 8 rats per dose",0
same,Number of Rats with Analgesia,"[1]; 1 h after administration, dose 4 mg./kg., 10 rats per dose",0
same,Number of Rats with Analgesia,"[1]; 1 h after administration, dose 5 mg./kg., 8 rats per dose",0
same,Number of Rats with Analgesia,"[1]; 1 h after administration, dose 8 mg./kg., 8 rats per dose",0
same,Number of Rats with Analgesia,"[1]; 1 h after administration, dose 8 mg./kg., 10 rats per dose",4
same,Number of Rats with Analgesia,"[1]; 1 h after administration, dose 10 mg./kg., 8 rats per dose",0
same,Number of Rats with Analgesia,"[1]; 1 h after administration, dose 16 mg./kg., 8 rats per dose",0
same,Number of Rats with Analgesia,"[1]; 1 h after administration, dose 20 mg./kg., 8 rats per dose",1
same,Number of Rats with Analgesia,"[1]; 2 h after administration, dose 2 mg./kg., 10 rats per dose",2
same,Number of Rats with Analgesia,"[1]; 2 h after administration, dose 4 mg./kg., 8 rats per dose",2
same,Number of Rats with Analgesia,"[1]; 2 h after administration, dose 4 mg./kg., 10 rats per dose",1
same,Number of Rats with Analgesia,"[1]; 2 h after administration, dose 5 mg./kg., 8 rats per dose",1
same,Number of Rats with Analgesia,"[1]; 2 h after administration, dose 8 mg./kg., 8 rats per dose",1
same,Number of Rats with Analgesia,"[1]; 2 h after administration, dose 8 mg./kg., 10 rats per dose",4
same,Number of Rats with Analgesia,"[1]; 2 h after administration, dose 10 mg./kg., 8 rats per dose",1
same,Number of Rats with Analgesia,"[1]; 2 h after administration, dose 16 mg./kg., 8 rats per dose",4
same,Number of Rats with Analgesia,"[1]; 2 h after administration, dose 20 mg./kg., 8 rats per dose",4
same,Number of Rats with Analgesia,"[1]; 3 h after administration, dose 2 mg./kg., 10 rats per dose",2
same,Number of Rats with Analgesia,"[1]; 3 h after administration, dose 4 mg./kg., 8 rats per dose",1
same,Number of Rats with Analgesia,"[1]; 3 h after administration, dose 4 mg./kg., 10 rats per dose",0
same,Number of Rats with Analgesia,"[1]; 3 h after administration, dose 5 mg./kg., 8 rats per dose",2
same,Number of Rats with Analgesia,"[1]; 3 h after administration, dose 8 mg./kg., 8 rats per dose",3
same,Number of Rats with Analgesia,"[1]; 3 h after administration, dose 8 mg./kg., 10 rats per dose",5
same,Number of Rats with Analgesia,"[1]; 3 h after administration, dose 10 mg./kg., 8 rats per dose",4
same,Number of Rats with Analgesia,"[1]; 3 h after administration, dose 16 mg./kg., 8 rats per dose",6
same,Number of Rats with Analgesia,"[1]; 3 h after administration, dose 20 mg./kg., 8 rats per dose",7
same,Number of Rats with Analgesia,"[1]; 4 h after administration, dose 2 mg./kg., 10 rats per dose",0
same,Number of Rats with Analgesia,"[1]; 4 h after administration, dose 4 mg./kg., 8 rats per dose",0
same,Number of Rats with Analgesia,"[1]; 4 h after administration, dose 4 mg./kg., 10 rats per dose",0
same,Number of Rats with Analgesia,"[1]; 4 h after administration, dose 5 mg./kg., 8 rats per dose",1
same,Number of Rats with Analgesia,"[1]; 4 h after administration, dose 8 mg./kg., 8 rats per dose",1
same,Number of Rats with Analgesia,"[1]; 4 h after administration, dose 8 mg./kg., 10 rats per dose",3
same,Number of Rats with Analgesia,"[1]; 4 h after administration, dose 10 mg./kg., 8 rats per dose",4
same,Number of Rats with Analgesia,"[1]; 4 h after administration, dose 16 mg./kg., 8 rats per dose",3
same,Number of Rats with Analgesia,"[1]; 4 h after administration, dose 20 mg./kg., 8 rats per dose",7
same,Number of Rats with Analgesia,"[1]; 5 h after administration, dose 2 mg./kg., 10 rats per dose",0
same,Number of Rats with Analgesia,"[1]; 5 h after administration, dose 4 mg./kg., 8 rats per dose",0
same,Number of Rats with Analgesia,"[1]; 5 h after administration, dose 4 mg./kg., 10 rats per dose",1
same,Number of Rats with Analgesia,"[1]; 5 h after administration, dose 5 mg./kg., 8 rats per dose",0
same,Number of Rats with Analgesia,"[1]; 5 h after administration, dose 8 mg./kg., 8 rats per dose",0
same,Number of Rats with Analgesia,"[1]; 5 h after administration, dose 8 mg./kg., 10 rats per dose",2
same,Number of Rats with Analgesia,"[1]; 5 h after administration, dose 10 mg./kg., 8 rats per dose",2
same,Number of Rats with Analgesia,"[1]; 5 h after administration, dose 16 mg./kg., 8 rats per dose",2
same,Number of Rats with Analgesia,"[1]; 5 h after administration, dose 20 mg./kg., 8 rats per dose",5
same,Number of Rats with Analgesia,"[1]; 6 h after administration, dose 2 mg./kg., 10 rats per dose",0
same,Number of Rats with Analgesia,"[1]; 6 h after administration, dose 4 mg./kg., 8 rats per dose",0
same,Number of Rats with Analgesia,"[1]; 6 h after administration, dose 4 mg./kg., 10 rats per dose",0
same,Number of Rats with Analgesia,"[1]; 6 h after administration, dose 5 mg./kg., 8 rats per dose",0
same,Number of Rats with Analgesia,"[1]; 6 h after administration, dose 8 mg./kg., 8 rats per dose",0
same,Number of Rats with Analgesia,"[1]; 6 h after administration, dose 8 mg./kg., 10 rats per dose",1
same,Number of Rats with Analgesia,"[1]; 6 h after administration, dose 10 mg./kg., 8 rats per dose",0
same,Number of Rats with Analgesia,"[1]; 6 h after administration, dose 16 mg./kg., 8 rats per dose",1
same,Number of Rats with Analgesia,"[1]; 6 h after administration, dose 20 mg./kg., 8 rats per dose",4
same,Total Positives,"[1]; sum over 1/2, 1 and 2 h, dose 5 mg./kg., 8 rats per dose",1
same,Total Positives,"[1]; sum over 1/2, 1 and 2 h, dose 10 mg./kg., 8 rats per dose",1
same,Total Positives,"[1]; sum over 1 and 2 h, dose 4 mg./kg., 10 rats per dose",1
same,No. Dead,[2],14

# Source: patent EP0017102A1, “Composition containing a phenyl benzoic acid compound and acetaminophen combination for the treatment of pain and inflammation and process for preparing the same” (Merck & Co., Inc., priority 1979, dated 1980)
